The text below walks through data of a melting point compilation (Tetko et al.; mined from patent text by program, amines drawn as free bases though some values may be those of a salt).

The molecule `CCCCCCCCC=CCCCCCCCC(=O)Cl` gave a melting point of 73 to 74 °C.

In the case of `O=C(NC(Cc1c[nH]cn1)C(=O)NC(Cc1ccc(OCc2ccccc2)cc1)C(=O)NCCOCc1ccccc1)OCc1ccccc1` (stereo not drawn), the melting point lay within 161 to 165 °C.

`CCNC(=S)OCCOc1ccc(Oc2ccc(F)cc2)cc1` gave a melting point of 73 to 75 °C.

In turn, `Clc1cc(-c2ccc3c(c2)CCO3)nc2ccccc12` came in with a melting point of 130 to 132 °C.

Take `Cc1nc(N)c2nc(C)n(CCNC(=O)N3CCOCC3)c2c1C`: the melting point lay within 219 to 221 °C.

In the case of `CCOC(=O)CCCn1c(Nc2cnc(OC)cc2C)nc2c(Cl)ccc(C(CC)CC)c21`, the melting point lay in the range of 140 to 142 °C.

Take `COc1ccc(N2CCOP(=O)(Oc3ccccc3)OCC2)cc1`: the melting point was in the range of 124 to 126 °C.

As to `COC(=O)/C(C#N)=C/c1ccccc1`, the melting point lay in the range of 90 to 91 °C.

The molecule `Cc1cc(Oc2c(Cl)cc(C(F)(F)F)cc2Cl)nn1C(=O)NCCO` showed a melting point of 124 to 126 °C.

`CCCc1c2c(c(C(C)(C)C)c(OC(C)=O)c1C(C)(C)C)CC(C)(C)O2` yielded a melting point of 106 °C.

Molecule `CCOC(=O)C#CC(OC(N)=O)c1ccccc1` (stereo not drawn) yielded a melting point of 82 °C.

With `N#CSCCON=C(C(=O)O)c1csc(NC(c2ccccc2)(c2ccccc2)c2ccccc2)n1`, the melting point is 194 °C.

`CCOC(=O)C1Cc2ccc(OC)c(Cl)c2O1` (stereo not drawn) yielded a melting point of 108 to 110 °C.

`CN1C(=O)C(c2ccc(OC(F)F)cc2)(c2cccc(OC(F)F)c2)N=C1N` (stereo not drawn): the melting point was 52 to 54 °C.

Consider `COC(=O)c1ccccc1S(=O)(=O)NC(=O)Nc1ncccn1`, for which the melting point lay within 188 to 192 °C.

As for `O=S1NC(Cc2ccc3c(Cl)cccc3c2)=NO1` (stereo not drawn), the melting point was 164 to 165 °C.

`CC[C@H](C)[C@H](OCc1ccccc1)[C@H]1[C@H]([N+](=O)[O-])[C@@H]([C@@H](OCc2ccccc2)C(C)C)N[C@@H]1C(=O)O` showed a melting point of 172 to 174 °C.

`CC(COS(C)(=O)=O)N1c2ccccc2Sc2ccc(C#N)cc21` (racemic) registered a melting point of 124 °C.

Turning to `O=C(Nc1ccc(N2CCCC2=O)cc1)OCc1ccccc1`, the melting point stood at 174 °C.

Regarding `CCCCC(OC(C)=O)c1cccc(COc2cc([N+](=O)[O-])cc3cccnc23)c1` (stereo not drawn), the melting point is 72 to 74 °C.

`Cc1cccc(C)c1CNc1cc(C2=NCCO2)cc2c1nc(C)n2C` registered a melting point of 235 °C.

For `CCN1C=C(C(=O)OC)C(=O)CC1c1ccc(N(C)C)cc1` (stereo not drawn), the melting point lay in the range of 85 to 87 °C.

Molecule `O=C1OCCC1Nc1ccc(Nc2ccccc2)cc1` (stereo not drawn) came in with a melting point of 142 to 143 °C.

The molecule `COC(=O)Cc1ccc(O)c(NC(=O)C(C)(C)C)c1` had a melting point of 112 to 113 °C.

Take `COC(=O)c1ccccc1-c1ccc(COS(C)(=O)=O)cc1`: the melting point lay in the range of 43 to 45 °C.

For `C(=C(c1ccccc1)c1ccccc1)c1ccc2c(c1)Cc1ccccc1-2`, the melting point was in the range of 136 to 138 °C.

The molecule `CC(C)COC1=C(Cc2ccc(Cl)cc2)C(=O)CC(C)(C)C1` registered a melting point of 60 to 61 °C.

The molecule `Cc1cc(-n2ccnc2)c2cccc(OCc3c(Cl)ccc(S(=O)(=O)N4CCC[C@H]4C(=O)NCC4CCN(C(=O)OC(C)(C)C)CC4)c3Cl)c2n1` registered a melting point of 100 °C.

In turn, `CCOC(=O)CON(CC)C(=S)Nc1ccc(Cl)cc1C` registered a melting point of 69 to 71 °C.

Take `CC(=O)Nc1nccc(Oc2ccc3c(C(=O)Nc4ccc(F)c(C(F)(F)F)c4)cccc3c2)n1`: the melting point was 213 to 214 °C.

`C=CCCOc1ccc(C[C@H](NC(=O)OC(C)(C)C)C(=O)N[C@@H](CC(C)C)C(=O)N[C@@H](CC=C)C(=O)OC)cc1` showed a melting point of 166 to 168 °C.

In the case of `CCc1nc(COc2ccc([N+](=O)[O-])cc2)cs1`, the melting point fell in the range of 79 to 80 °C.

Turning to `O=c1ccccn1C1c2cc(S(=O)c3ccccc3)ccc2OCCC1O` (stereo not drawn), the melting point lay within 181 to 184 °C.

With `O=C(O)c1cccc(-c2cccc(Oc3cc(Cl)cc(Cl)c3)n2)c1`, the melting point fell in the range of 234 to 235 °C.

`O=C(Nc1ccc(N(CCCl)CCCl)cc1)Nc1cccc([N+](=O)[O-])c1` returned a melting point of 246 to 247 °C.

`CC(=O)OC1C(OC(=O)C=Cc2ccccc2)C=C(C)C(=O)CC1(C)C` (stereo not drawn) registered a melting point of 138 to 139 °C.

For `O=C(O)C1CSC(=S)N1` (stereo not drawn), the melting point was in the range of 183 to 184 °C.

For the molecule `FC(F)(F)c1nncn1-c1ccc(Cl)cc1`, the melting point is 108 °C.

Molecule `Cc1ccc([C@@H]2c3c(C)c(N4C(=O)CC(c5ccc(F)cc5)CC4=O)c(C)c(C)c3OC2(C)C)cc1` returned a melting point of 151 to 154 °C.

As to `Cn1ncc2c1-c1c(Oc3ccc4c(c3)OCO4)sc(C(=O)c3cccnc3)c1CC2`, the melting point lay in the range of 180 to 182 °C.

For `O=C(O)CCNC(=O)CNC(=O)c1csc(NC(=O)NCc2ccccc2)n1`, the melting point worked out at 174 °C.

Molecule `COC(=O)CCc1cc(C(CC(C)C)NC(=O)Cc2ccc(NC(=O)Nc3ccccc3C)cc2)no1` (stereo not drawn) returned a melting point of 153 to 154 °C.

The molecule `COC1C=C(c2ccc(C#N)cc2)C(OC)O1` (stereo not drawn) had a melting point of 71 to 72 °C.

`COC(=O)CNc1cc(O)c(C(C)=O)c(OC)c1` came in with a melting point of 114 to 115 °C.

Molecule `CC(C)(C)OC(=O)NCCSc1cc(-c2ccccc2)on1` registered a melting point of 87 to 88 °C.

As for `COC(=O)C(C)(C)c1ccc(C(=O)Nc2cn3cc(C)ccc3n2)cc1`, the melting point lay within 228 to 230 °C.

On to `CC(/C=C/CN1CCc2cc3c(cc21)C(C)(C)CCC3(C)C)=C\C(=O)O`, for which the melting point was in the range of 170 to 171 °C.

`CC(=O)OC1OCC[C@@H]1NC(=O)[C@@H](NC(=O)OCc1ccccc1)C(C)C` (stereo partly drawn) yielded a melting point of 173 to 174 °C.

In the case of `O=C(Cc1ccc(Cl)cc1)OCCCOc1c(Cl)cc(OCC=C(Cl)Cl)cc1Cl`, the melting point came to 62.2 °C.

In turn, `COC(=O)NCc1cccc(-c2ccnc3c(C(=O)c4ccco4)cnn23)c1` came in with a melting point of 152 to 154 °C.

Molecule `CCOC(=O)c1ccc(NC(C)c2ccccc2)cc1` (stereo not drawn) yielded a melting point of 88 °C.

With `CC(CSc1cc(C(C)(C)C)c(O)c(C(C)(C)C)c1)N(O)C(N)=O` (stereo not drawn), the melting point fell in the range of 65 to 66 °C.

In turn, `Cc1cc(C2=NOC(c3cc(C(F)(F)F)cc(C(F)(F)F)c3)(C(F)(F)F)C2)ccc1Br` (stereo not drawn) showed a melting point of 108 to 110 °C.

The molecule `CCCCN1CCN(CCNC(=O)c2nn(C(C)C)c3ccccc23)CC1` yielded a melting point of 82 to 84 °C.

`COc1cc(Nc2nc3cccc(-c4ccc5ncccc5c4)c3o2)cc(OC)c1OC` yielded a melting point of 187 to 190 °C.

`Cc1ccc2c(C#N)cn(-c3ccc(C(C)C)cc3Br)c2n1` had a melting point of 176 °C.

Molecule `CC(=O)OCC1OC(n2cc(C(Br)=CBr)c(=O)[nH]c2=O)C(OC(C)=O)C1OC(C)=O` (stereo not drawn) registered a melting point of 83 to 85 °C.

`Cc1nc(C(=O)c2ccc(Cl)cc2)sc1C` came in with a melting point of 97 °C.

Regarding `CC12CCC3C(CCC4CC(O)CCC43C)C1CCC2=S` (stereo not drawn), the melting point is 172 to 173 °C.

Consider `CCCN(CCC)C1CCc2c(ccc3c2C(=O)C(=O)N3)C1` (stereo not drawn), for which the melting point was 83 to 86 °C.

The molecule `O=C1C2=CSCCN2C(=O)N1c1ccc(Cl)cc1F` showed a melting point of 118 to 120 °C.

In turn, `CC1(C)CC(c2ncccn2)c2cc(C#N)ccc2O1` (stereo not drawn) displayed a melting point of 109 to 111 °C.

Turning to `Nc1nc(CC(=O)Nc2cccc(C(F)(F)F)c2)cs1`, the melting point lay within 116 to 118 °C.

For the molecule `COc1cn(-c2ccc(N3CC=CC3)cc2F)nc(-c2ccnn2-c2ccccc2)c1=O`, the melting point is 204 to 207 °C.

The molecule `CC1(C)CC(=O)C2C3CCCCC3C2(C)C1` (stereo not drawn) had a melting point of 76.6 to 77.4 °C.

The molecule `CC(C)(C)OC(=O)Nc1nc(/C(=N/OC(c2ccccc2)(c2ccccc2)c2ccccc2)C(=O)O)cs1` had a melting point of 157 to 158 °C.

On to `COc1ccc(C(C)(C)c2cc(C(C)(C)C)cc(-n3nc4ccc(C(F)(F)F)cc4n3)c2O)cc1`, for which the melting point came to 140 °C.

As for `CS(=O)(=O)OCCn1c2ccc(O)cc2c2c3c(c(-c4ccccc4)cc21)C(=O)NC3=O`, the melting point lay in the range of 271 to 276 °C.

As to `O=C1CC2(CCCCC2Cc2ccccc2)SCCN1` (stereo not drawn), the melting point lay within 130 to 135 °C.

With `COc1ccc(Cn2c(=S)[nH]c(=S)c3[nH]c(C(C)C)nc32)cc1OC1CCCC1`, the melting point was in the range of 204 to 206 °C.

For `Cc1cc(-c2noc(CS(C)(=O)=O)n2)ccc1Br`, the melting point is 130 to 132 °C.

For the molecule `CS(=O)(=O)c1ccccc1-c1cc(F)cc(OCc2ccc3c(-c4ccoc4)cc(C#N)nc3c2)c1`, the melting point is 186 to 187 °C.

For `O=[N+]([O-])c1c(Cl)nc2c(c1Cl)CCCC2`, the melting point is 63 to 64 °C.

The molecule `COc1cc(Nc2nccc(-c3cccc(Br)c3)n2)cc(OC)c1OC` showed a melting point of 145 °C.

In the case of `CC(C)(C#N)Cc1ccc(-c2ccc(CC(C)(C)C#N)cc2)cc1`, the melting point lay within 174 to 182 °C.

For `CC(C)c1cc(-c2ccc(F)c3ccc(F)cc23)nc(N)n1`, the melting point was 103 to 105 °C.

For `CC(=O)C(=Cc1cccc(C#N)c1)C(C)=O`, the melting point lay within 63 to 64 °C.

The molecule `O=C(O)N1CCN2c3sc4c(c3CN(c3ccccc3Cl)CC12)CC=C4` (stereo not drawn) showed a melting point of 315 °C.

With `CCc1nc2c(C)cc(C)nc2n1Cc1ccc(C(CC(=O)NS(C)(=O)=O)c2ccccc2)cc1` (stereo not drawn), the melting point is 118 to 123 °C.

In turn, `CN1CCN(c2cc(Cl)cc3c2c(=O)n(Cc2ccc(Br)cc2)c(=O)n3Cc2ccccc2)CC1` came in with a melting point of 93 to 98 °C.

Molecule `CS(=O)(=O)c1nnc(-c2ccco2)s1` displayed a melting point of 120 °C.

For `O=C(NN=Cc1ccnc2ccccc12)C1CCC1`, the melting point came to 138 °C.

As for `N#Cc1cc(-c2c[nH]nc2-c2ccc(F)cc2)ccn1`, the melting point was 209 °C.

With `CCOP(=O)(Cc1ccc2ccccc2c1O)OCC`, the melting point lay in the range of 90.1 to 91.3 °C.

Turning to `COc1cc(COc2nn(-c3ccccc3)cc2/C=C/C(N)=O)ccc1OCc1nc(-c2ccco2)oc1C`, the melting point lay in the range of 187 to 188 °C.

In the case of `Cn1ncc(CCC(=O)O)c1-c1ccc(Cl)cc1`, the melting point was in the range of 138 to 140 °C.

`C[C@@H](Cc1ccc(OCC(=O)O)cc1)NS(=O)(=O)c1ccccc1` registered a melting point of 89 to 91 °C.

As for `O=S(=O)(Nc1cccc(OCc2csc(-c3ccccc3)n2)c1)C(F)(F)F`, the melting point is 113 to 115 °C.

The melting point is the temperature of the solid-liquid transition.
